# Results reported in patent US9040523B2, “Antifungal 5,6-dihydro-4H-pyrrolo[1,2-α][1,4]-benzodiazepines and 6H-pyrrolo[1,2-α][1,4]benzodiazepines substituted with benzene derivatives” (JANSSEN PHARMACEUTICA NV, priority 2010, dated 2015).
# Key:
# [1] = test system: Mucor circinelloides IHEM21105; assay: Antifungal activity in vitro (resazurin susceptibility screen), Inf. L; type: cell-based; conditions: 27 °C, 48 hours, resa time 17 hours, read-out: Inf. L pIC50 (converted)
# Description: (§1) The standard susceptibility screen was performed in 96-well plates (U-bottom, Greiner Bio-One). […] These serial dilutions (10 n1) were then spotted onto test-plates that could be stored in the dark at 4° C. for a maximum period of 2 weeks. […] The different fungal species/isolates (Table 3a) were cryopreserved and 1/1000 diluted in medium just prior to use. A standard inoculum of 200 μl containing 10^3 colony-forming unit (cfu) was then added to each well. A positive control (100% growth=fungal culture without antifungal) and a negative control (0% growth ═RPMI-MOPS medium) were included on each plate. […] [table]
# [2] = test system: Trichophyton rubrum B68183; assay: Antifungal activity in vitro (resazurin susceptibility screen), Inf. C; type: cell-based; conditions: Trichophyton rubrum B68183; 27 °C, 7 days, resa time 24 hours; read-out: Inf. C pIC50 (converted)
# Summary of the method: (§2)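 Growth was normalised between a fungal culture lacking antifungal (100%) and RPMI-MOPS medium only (0%), both on every plate. Wells held pre-spotted serial dilutions of compound and received 10^3 cfu of freshly diluted (1/1000) cryopreserved fungus.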
# CYP2C9 = CYP2C9 (Homo sapiens, UniProt P11712); assay: Cytochrome P450 inhibition, Protocol A, cDNA expressed proteins, fluorogenic substrate; type: in vitro ADME; conditions: % inhibition at 10 μM; substrate MFC; cDNA expressed protein
# CYP2C9, sequence (P11712 whole entry): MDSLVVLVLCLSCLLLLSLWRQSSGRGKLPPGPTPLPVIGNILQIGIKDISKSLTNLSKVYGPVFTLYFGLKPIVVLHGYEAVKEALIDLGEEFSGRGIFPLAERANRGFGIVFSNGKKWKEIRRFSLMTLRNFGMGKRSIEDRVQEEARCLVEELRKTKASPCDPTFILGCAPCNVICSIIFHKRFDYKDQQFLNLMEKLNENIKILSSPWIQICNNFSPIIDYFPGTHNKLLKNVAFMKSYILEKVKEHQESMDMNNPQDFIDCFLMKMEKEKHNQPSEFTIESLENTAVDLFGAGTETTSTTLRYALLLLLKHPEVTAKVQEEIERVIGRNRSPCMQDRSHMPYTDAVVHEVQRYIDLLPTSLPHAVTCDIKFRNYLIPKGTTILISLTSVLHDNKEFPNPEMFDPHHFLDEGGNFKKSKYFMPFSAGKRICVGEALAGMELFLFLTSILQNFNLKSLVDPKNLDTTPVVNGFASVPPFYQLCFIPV
# Summary of the method: (§3)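 cDNA-expressed enzymes with fluorogenic substrates (three separate ones for CYP3A4) in sodium/potassium buffer pH 7.4 plus NADPH-generating system. Compounds at 1 nM to 10 μM final, prewarmed 5 min at 37° C, reaction started with NADP+, stopped, then fluorescence measured.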
# CYP2D6 = CYP2D6 (Homo sapiens, UniProt P10635); assay: as above; type: in vitro ADME; conditions: % inhibition at 10 μM; substrate AMMC; cDNA expressed protein
# CYP2D6, sequence (P10635 whole entry): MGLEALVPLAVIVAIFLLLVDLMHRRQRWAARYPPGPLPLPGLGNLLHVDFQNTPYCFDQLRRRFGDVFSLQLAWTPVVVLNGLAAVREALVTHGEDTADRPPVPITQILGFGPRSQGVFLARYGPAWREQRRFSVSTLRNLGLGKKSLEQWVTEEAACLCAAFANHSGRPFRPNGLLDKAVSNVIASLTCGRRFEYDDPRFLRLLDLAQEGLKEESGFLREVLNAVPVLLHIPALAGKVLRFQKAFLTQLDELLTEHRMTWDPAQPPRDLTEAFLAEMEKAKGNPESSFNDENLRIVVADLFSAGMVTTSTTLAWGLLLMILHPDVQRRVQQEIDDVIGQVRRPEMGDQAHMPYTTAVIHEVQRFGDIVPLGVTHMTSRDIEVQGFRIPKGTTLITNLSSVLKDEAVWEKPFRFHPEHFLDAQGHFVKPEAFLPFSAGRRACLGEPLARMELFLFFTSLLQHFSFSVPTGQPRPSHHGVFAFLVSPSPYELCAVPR
# Summary of the method: as §3
# [3] = test system: Scedosporium apiospermum IHEM3817; assay: Antifungal activity in vitro (resazurin susceptibility screen), Inf. H; type: cell-based; conditions: 37 °C, 48 hours, resa time 17 hours, read-out: Inf. H pIC50 (converted)
# Description: as §1
# CYP3A4 = CYP3A4 (Homo sapiens, UniProt P08684); assay: Cytochrome P450 inhibition, Protocol A, cDNA expressed proteins, fluorogenic substrates; type: in vitro ADME; conditions: % inhibition at 10 μM, cDNA expressed protein; for hCYP3A4_BFC_Pct_Inh: substrate BFC; for hCYP3A4_BQ_Pct_Inh: substrate BQ; for hCYP3A4_DBF_Pct_Inh: substrate DBF
# CYP3A4, sequence (P08684 whole entry): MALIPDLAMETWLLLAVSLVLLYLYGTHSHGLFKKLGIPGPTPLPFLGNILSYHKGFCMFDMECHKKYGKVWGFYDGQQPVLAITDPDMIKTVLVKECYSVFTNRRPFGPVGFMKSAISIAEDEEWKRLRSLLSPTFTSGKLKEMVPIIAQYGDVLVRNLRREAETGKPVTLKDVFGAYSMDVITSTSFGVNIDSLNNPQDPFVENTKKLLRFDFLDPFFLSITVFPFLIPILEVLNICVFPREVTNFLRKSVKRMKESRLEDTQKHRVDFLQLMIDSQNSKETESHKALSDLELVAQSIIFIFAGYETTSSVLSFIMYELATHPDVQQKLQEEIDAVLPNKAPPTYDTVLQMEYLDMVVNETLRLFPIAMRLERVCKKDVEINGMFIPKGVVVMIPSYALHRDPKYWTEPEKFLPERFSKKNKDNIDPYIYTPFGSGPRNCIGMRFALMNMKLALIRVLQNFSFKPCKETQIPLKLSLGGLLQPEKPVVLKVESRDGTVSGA
# Summary of the method: as §3
# [4] = test system: Sporothrix schenkii B62482; assay: Antifungal activity in vitro (resazurin susceptibility screen), Inf. A; type: cell-based; conditions: Sporothrix, B62482, Sporothrix schenkii B62482; 27 °C, 4 days, resa time 24 hours; highest in-test concentration 64 μM; read-out: Inf. A pIC50 (converted)
# Summary of the method: as §2
# Microsporum canis B68128 = assay: Antifungal activity in vitro (resazurin susceptibility screen), Inf. B; type: cell-based; conditions: Microsporum canis, B68128, Microsporum canis B68128; 27 °C, 9 days, resa time 24 hours; read-out: Inf. B pIC50 (converted)
# Summary of the method: (§4)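 Each well was inoculated with 10^3 cfu of fungus onto dried, pre-spotted compound serial dilutions in RPMI-MOPS medium, with fungal growth read by resazurin. Growth was referenced to drug-free culture (100%) and medium-only (0%) controls on each plate.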
# [5] = test system: Scedosporium prolificans IHEM21157; assay: Antifungal activity in vitro (resazurin susceptibility screen), Inf. I; type: cell-based; conditions: Lomentospora prolificans, 37 °C, 48 hours, resa time 17 hours, read-out: Inf. I pIC50 (converted)
# Description: as §1
# [6] = test system: Rhizomucor miehei IHEM13391; assay: Antifungal activity in vitro (resazurin susceptibility screen), Inf. K; type: cell-based; conditions: 37 °C, 48 hours, resa time 17 hours, read-out: Inf. K pIC50 (converted)
# Description: as §1
# [7] = test system: Candida parapsilosis B66126; assay: Antifungal activity in vitro (resazurin susceptibility screen), Inf. D; type: cell-based; conditions: Lodderomyces parapsilosis; Candida parapsilosis B66126; 37 °C, 24 hours, resa time 4 hours; read-out: Inf. D pIC50 (converted)
# Summary of the method: as §4
# [8] = Liver metabolic stability assay, hLM; type: in vitro ADME, human; conditions: human liver microsomes, 1 mg protein/ml, 5 μM test compound, 15 min, 37 °C
# [9] = test system: Cryptococcus neoformans B66663; assay: Antifungal activity in vitro (resazurin susceptibility screen), Inf. F; type: cell-based; conditions: Cryptococcus neoformans, B66663, Cryptococcus neoformans B66663; 37 °C, 24 hours, resa time 4 hours; read-out: Inf. F pIC50 (converted)
# Summary of the method: as §2
IC50 [1],IC50 [2],hCYP2C9_MFC_Pct_Inh (CYP2C9),hCYP2D6_AMMC_Pct_Inh (CYP2D6),IC50 [3],hCYP3A4_BFC_Pct_Inh (CYP3A4),hCYP3A4_BQ_Pct_Inh (CYP3A4),hCYP3A4_DBF_Pct_Inh (CYP3A4),IC50 [4],IC50 (Microsporum canis B68128),IC50 [5],IC50 [6],IC50 [7],%-compound metabolised_Met_hLM [8],IC50 [9],SMILES
> 63.1 µM,0.1 µM,43%,20%,> 63.1 µM,1%,25%,5%,> 63.1 µM,1.26 µM,0.631 µM,> 63.1 µM,> 63.1 µM,26%,> 63.1 µM,"CC(=O)c1ccc(C2=NCc3c(F)cccc3-n3cccc32)cc1 [Compound 20, 1-[4-(7-fluoro-6H-pyrrolo[1,2-a][1,4]benzodiazepin-4-yl)phenyl]-ethanone]"
> 63.1 µM,0.0501 µM,85%,53%,50.1 µM,39%,63%,89%,3.98 µM,0.1 µM,1.26 µM,> 63.1 µM,25.1 µM,27%,10 µM,"CC(=O)c1ccc(C2=NCc3c(Cl)cc(Cl)cc3-n3cccc32)cc1 [Compound 22, 1-[4-(7,9-dichloro-6H-pyrrolo[1,2-a][1,4]benzodiazepin-4-yl)phenyl]-ethanone]"
> 63.1 µM,0.126 µM,54%,3%,7.94 µM,3%,39%,3%,20 µM,2 µM,2.51 µM,> 63.1 µM,3.98 µM,20%,10 µM,"CC(=O)c1ccc(C2=NCc3c(F)cc(F)cc3-n3cccc32)cc1 [Compound 24, 1-[4-(7,9-difluoro-6H-pyrrolo[1,2-a][1,4]benzodiazepin-4-yl)phenyl]-ethanone]"

# Second part, the compound before the results:
SMILES,IC50 [1],IC50 [2],hCYP2C9_MFC_Pct_Inh (CYP2C9),hCYP2D6_AMMC_Pct_Inh (CYP2D6),IC50 [3],hCYP3A4_BFC_Pct_Inh (CYP3A4),hCYP3A4_BQ_Pct_Inh (CYP3A4),hCYP3A4_DBF_Pct_Inh (CYP3A4),IC50 [4],IC50 (Microsporum canis B68128),IC50 [5],IC50 [6],IC50 [7],%-compound metabolised_Met_hLM [8],IC50 [9]
"CC(=O)c1ccc(C2=NCc3cccc(Cl)c3-n3cccc32)cc1 [Compound 15, 1-[4-(10-chloro-6H-pyrrolo[1,2-a][1,4]benzodiazepin-4-yl)phenyl]-ethanone]",> 63.1 µM,0.126 µM,60%,63%,10 µM,1%,40%,16%,1.58 µM,0.631 µM,2 µM,7.94 µM,> 63.1 µM,17%,2 µM
"CC(=O)c1cccc(C2=NCc3c(Cl)cccc3-n3cccc32)c1 [Compound 16, 1-[3-(7-chloro-6H-pyrrolo[1,2-a][1,4]benzodiazepin-4-yl)phenyl]-ethanone]",> 63.1 µM,0.0501 µM,84%,55%,> 63.1 µM,29%,46%,64%,25.1 µM,0.316 µM,> 63.1 µM,> 63.1 µM,> 63.1 µM,87%,> 63.1 µM
"CC(=O)c1cc(C2=NCc3c(Cl)cccc3-n3cccc32)ccc1F [Compound 19, 1-[5-(7-chloro-6H-pyrrolo[1,2-a][1,4]benzodiazepin-4-yl)-2-fluorophenyl]-ethanone]",> 63.1 µM,0.2 µM,60%,33%,> 63.1 µM,26%,49%,49%,> 63.1 µM,1.58 µM,1.26 µM,> 63.1 µM,> 63.1 µM,36%,> 63.1 µM
